Measurements as given in paper PMC11844072, “Novel 5,6-dichlorobenzimidazole derivatives as dual BRAFWT and BRAFV600E inhibitors: design, synthesis, anti-cancer activity and molecular dynamics simulations” (BMC Chemistry, 2025).

Key:
RXF 393 = assay: NCI 60 single concentration growth inhibition; assay type: cell-based, human; details: Homo sapiens, RXF 393, Renal cancer, read-out: GI%
Experimental: (§1) The synthesized dichlorobenzimidazoles 10a–p were assayed for their influence on divers cancer cell lines according to the method presented in the Additional file A.
(§2) 5. Screening of cytotoxic activity against a panel of sixty human tumor cell lines
(§3) The selected compounds by NCI were evaluated for their anticancer activity in a two-stage process. First, these compounds were screened against the full NCI 60 cell lines panel at a single high dose of 10 µM. Then, the output from the single dose screen is reported as a mean graph. […]
(§4) at five different minimal concentrations.
(§5) Assay protocol. The human tumor cell lines of the cancer screening panel are grown in RPMI 1640 medium containing 5% fetal bovine serum and 2 mM L-glutamine. For a typical screening experiment, cells are inoculated into 96 well microtiter plates in 100 µL at plating densities ranging from 5000 to 40,000 cells/well depending on the doubling time of individual cell lines. After cell inoculation, the microtiter plates are incubated at 37 °C, 5% CO 2, 95% air and 100% relative humidity for 24 h prior to addition of the experimental drugs.
(§6) After 24 h, two plates of each cell line are fixed in situ with TCA, to represent a measurement of the cell population for each cell line at the time of drug addition (Tz). The experimental drugs are solubilized in dimethyl sulfoxide at 400-fold the desired final maximum test concentration and stored frozen prior to use. At the time of drug addition, an aliquot of frozen concentrate is thawed and diluted to twice the desired final maximum test concentration with complete medium containing 50 µg/mL gentamicin. Additional four, 10-fold or ½ log serial dilutions are made to provide a total of five drug concentrations plus control.
(§7) Aliquots of […] of these different drug dilutions are added to the appropriate microtiter wells already containing […] of medium, resulting in the required final drug concentrations.
(§8) Following drug addition, the plates are incubated for an additional 48 h at 37 °C, 5% CO 2, 95% air, and 100% relative humidity. For adherent cells, the assay is terminated by the addition of cold TCA.
(§9) Cells are fixed in situ by the gentle addition of 50 µL of cold 50% (w/v) TCA (final concentration, 10% TCA) and incubated for 60 min at 4 °C. The supernatant is discarded, and the plates are washed five times with tap water and air dried. Sulforhodamine B (SRB) solution ([…]) at 0.4% (w/v) in 1% acetic acid is added to each well, and plates are incubated for 10 min at room temperature. After staining, unbound dye is removed by washing five times with 1% acetic acid and the plates are air dried. Bound stain is subsequently solubilized with 10 mM trizma base, and the absorbance is read on an automated plate reader at a wavelength of 515 nm. For suspension cells, the methodology is […]
(§10) the same except that the assay is terminated by fixing settled cells at the bottom of the wells by gently adding 50 µl of 80% TCA (final concentration, 16% TCA). Using the seven absorbance measurements [time zero, (Tz), control growth, (C), and test growth in the presence of drug at the five concentration levels (Ti)], the percentage growth is calculated at each of the drug concentrations […]
(§11) Percentage growth inhibition is calculated as: [(Ti Tz)/(C–Tz)] x 100 for concentrations for which Ti>/=Tz and [(Ti-Tz)/Tz] x 100 for concentrations for which Ti < Tz.
(§12) Three dose response parameters are calculated for each experimental agent. Growth […]
(§13) concentration resulting in a 50% reduction in the net protein increase (as measured by SRB staining) in control cells during the drug incubation. The drug concentration resulting in total growth inhibition (TGI) is calculated from Ti = Tz. […]
(§14) reduction in the measured protein at the end of the drug treatment as compared to that at the beginning) indicating a net loss of cells following treatment is calculated from [(Ti–Tz)/Tz] x 100 =
(§15) _50. Values are calculated for each of these three parameters if the level of activity is reached; […]

UACC-257 = assay: NCI 60 single concentration growth inhibition; assay type: cell-based, human; details: Homo sapiens, UACC-257, Melanoma, read-out: GI%
Experimental: as §1, §2, §3, §4, §5, §6, §7, §8, §9, §10, §11, §12, §13, §14, §15

EKVX = assay: NCI 60 single concentration growth inhibition; assay type: cell-based, human; details: Homo sapiens, Non-small cell lung cancer, read-out: GI%
Experimental: as §1, §2, §3, §4, §5, §6, §7, §8, §9, §10, §11, §12, §13, §14, §15

MCF7 = assay: NCI 60 single concentration growth inhibition; assay type: cell-based, human; details: Homo sapiens, MCF7, Breast cancer, read-out: GI%
Experimental: as §1, §2, §3, §4, §5, §6, §7, §8, §9, §10, §11, §12, §13, §14, §15

BT-549 = assay: NCI 60 single concentration growth inhibition; assay type: cell-based, human; details: Homo sapiens, BT-549, Breast cancer, read-out: GI%
Experimental: as §1, §2, §3, §4, §5, §6, §7, §8, §9, §10, §11, §12, §13, §14, §15

T-47D = assay: NCI 60 single concentration growth inhibition; assay type: cell-based, human; details: Homo sapiens, T47D, Breast cancer, read-out: GI%
Experimental: as §1, §2, §3, §4, §5, §6, §7, §8, §9, §10, §11, §12, §13, §14, §15

MOLT-4 = assay: NCI 60 single concentration growth inhibition; assay type: cell-based, human; details: Homo sapiens, MOLT-4, Leukemia, read-out: GI%
Experimental: as §1, §2, §3, §4, §5, §6, §7, §8, §9, §10, §11, §12, §13, §14, §15

OVCAR-8 = assay: NCI 60 single concentration growth inhibition; assay type: cell-based, human; details: Homo sapiens, OVCAR-8, Ovarian cancer, read-out: GI%
Experimental: as §1, §2, §3, §4, §5, §6, §7, §8, §9, §10, §11, §12, §13, §14, §15

SN12C = assay: NCI 60 single concentration growth inhibition; assay type: cell-based, human; details: Homo sapiens, Renal cancer, read-out: GI%
Experimental: as §1, §2, §3, §4, §5, §6, §7, §8, §9, §10, §11, §12, §13, §14, §15

RPMI-8226 = assay: NCI 60 single concentration growth inhibition; assay type: cell-based, human; details: Homo sapiens, RPMI-8226, Leukemia, read-out: GI%
Experimental: as §1, §2, §3, §4, §5, §6, §7, §8, §9, §10, §11, §12, §13, §14, §15

786-0 = assay: NCI 60 single concentration growth inhibition; assay type: cell-based, human; details: Homo sapiens, 786-0, Renal cancer, read-out: GI%
Experimental: as §1, §2, §3, §4, §5, §6, §7, §8, §9, §10, §11, §12, §13, §14, §15

M14 = assay: NCI 60 single concentration growth inhibition; assay type: cell-based, human; details: Homo sapiens, M14, Melanoma, read-out: GI%
Experimental: as §1, §2, §3, §4, §5, §6, §7, §8, §9, §10, §11, §12, §13, §14, §15

NCI-H226 = assay: NCI 60 single concentration growth inhibition; assay type: cell-based, human; details: Homo sapiens, NCI-H226, Non-small cell lung cancer, read-out: GI%
Experimental: as §1, §2, §3, §4, §5, §6, §7, §8, §9, §10, §11, §12, §13, §14, §15

A549/ATCC = assay: NCI 60 single concentration growth inhibition; assay type: cell-based, human; details: Homo sapiens, Non-small cell lung cancer, read-out: GI%
Experimental: as §1, §2, §3, §4, §5, §6, §7, §8, §9, §10, §11, §12, §13, §14, §15

OVCAR-5 = assay: NCI 60 single concentration growth inhibition; assay type: cell-based, human; details: Homo sapiens, OVCAR-5, Ovarian cancer, read-out: GI%
Experimental: as §1, §2, §3, §4, §5, §6, §7, §8, §9, §10, §11, §12, §13, §14, §15

SF-268 = assay: NCI 60 single concentration growth inhibition; assay type: cell-based, human; details: Homo sapiens, SF-268, CNS cancer, read-out: GI%
Experimental: as §1, §2, §3, §4, §5, §6, §7, §8, §9, §10, §11, §12, §13, §14, §15

PC-3 = assay: NCI 60 single concentration growth inhibition; assay type: cell-based, human; details: Homo sapiens, PC-3, Prostate cancer, read-out: GI%
Experimental: as §1, §2, §3, §4, §5, §6, §7, §8, §9, §10, §11, §12, §13, §14, §15

ACHN = assay: NCI 60 single concentration growth inhibition; assay type: cell-based, human; details: Homo sapiens, Renal cancer, read-out: GI%
Experimental: as §1, §2, §3, §4, §5, §6, §7, §8, §9, §10, §11, §12, §13, §14, §15

KM12 = assay: NCI 60 single concentration growth inhibition; assay type: cell-based, human; details: Homo sapiens, KM12, Colon cancer, read-out: GI%
Experimental: as §1, §2, §3, §4, §5, §6, §7, §8, §9, §10, §11, §12, §13, §14, §15

SF-295 = assay: NCI 60 single concentration growth inhibition; assay type: cell-based, human; details: Homo sapiens, SF-295, CNS cancer, read-out: GI%
Experimental: as §1, §2, §3, §4, §5, §6, §7, §8, §9, §10, §11, §12, §13, §14, §15

MDA-MB-435 = assay: NCI 60 single concentration growth inhibition; assay type: cell-based, human; details: Homo sapiens, MDA-MB-435, Melanoma, read-out: GI%
Experimental: as §1, §2, §3, §4, §5, §6, §7, §8, §9, §10, §11, §12, §13, §14, §15

[1] = tested on: NCI 60 cancer cell line panel; assay: NCI 60 single concentration growth inhibition, panel mean; assay type: cell-based; details: Homo sapiens, mean over NCI 60 panel, read-out: Mean GI%
Experimental: as §1, §2, §3, §4, §5, §6, §7, §8, §9, §10, §11, §12, §13, §14, §15

Structure (SMILES) | inhibition at 10 µM (RXF 393) | inhibition at 10 µM (UACC-257) | inhibition at 10 µM (EKVX) | inhibition at 10 µM (MCF7) | inhibition at 10 µM (BT-549) | inhibition at 10 µM (T-47D) | inhibition at 10 µM (MOLT-4) | inhibition at 10 µM (OVCAR-8) | inhibition at 10 µM (SN12C) | inhibition at 10 µM (RPMI-8226) | inhibition at 10 µM (786-0) | inhibition at 10 µM (M14) | inhibition at 10 µM (NCI-H226) | inhibition at 10 µM (A549/ATCC) | inhibition at 10 µM (OVCAR-5) | inhibition at 10 µM (SF-268) | inhibition at 10 µM (PC-3) | inhibition at 10 µM (ACHN) | inhibition at 10 µM (KM12) | inhibition at 10 µM (SF-295) | other results
COc1ccc(-c2nc3cc(Cl)c(Cl)cc3n2CC(=O)NN=Cc2cccc(OC)c2)cc1 [Compound 10c, 2-(5,6-Dichloro-2-(4-methoxyphenyl)-1H-benzo[d]imidazol-1-yl)-N'-(3-methoxybenzylidene)acetohydrazide] | 23.1% | 20.9% | 30.4% | 56.6% | 52.9% | 45.8% | 70.3% | 13.5% | 9.21% | 47.3% | 19.2% | 34.1% | 17.1% | 36.1% | < 5% | 48.3% | 29.5% | 20.4% | 17.6% | 22.3% | inhibition at 10 µM (MDA-MB-435): 33%; inhibition at 10 µM [1]: 28.1%
COc1ccc(C=NNC(=O)Cn2c(-c3ccc(OC)cc3)nc3cc(Cl)c(Cl)cc32)cc1 [Compound 10d, 2-(5,6-Dichloro-2-(4-methoxyphenyl)-1H-benzo[d]imidazol-1-yl)-N'-(4-methoxybenzylidene)acetohydrazide] | 38.7% | 60.4% | 76.8% | 81.5% | 50.3% | 67.2% | 68.9% | 22.4% | 27.8% | 64.9% | 29.1% | 38.2% | 33.9% | 59.4% | 21.5% | 48.6% | 68.5% | 40.2% | 40.8% | 66.8% | inhibition at 10 µM (MDA-MB-435): 41.4%; inhibition at 10 µM [1]: 44.6%
